From PubChem BioAssay (NCI)
Where “and” joins values, the source holds several entries; their conditions need not be identical. Equal values may be shown once.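 All cell lines were grown in 96-well plates and treated with compound for 48 hours. GI50 marks 50% less growth. TGI: concentration producing complete growth inhibition.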

Columns and labels:
Test in all cases: NCI anticancer screen, dose series, 48 h
SN12C renal = system: SN12C renal
UACC-62 melanoma = system: UACC-62 melanoma
UACC-257 melanoma = system: UACC-257 melanoma
SR leukemia = system: SR leukemia
SK-OV-3 ovarian = system: SK-OV-3 ovarian
NCI-H522 lung = system: NCI-H522 lung
HOP-92 NSCLC = system: HOP-92 NSCLC
HCC-2998 colon = system: HCC-2998 colon
COLO 205 colon = system: COLO 205 colon
M14 melanoma = system: M14 melanoma

Compound | TGI (SN12C renal) | TGI (UACC-62 melanoma) | TGI (UACC-257 melanoma) | TGI (SR leukemia) | TGI (SK-OV-3 ovarian) | TGI (NCI-H522 lung) | TGI (HOP-92 NSCLC) | TGI (HCC-2998 colon) | TGI (COLO 205 colon) | TGI (M14 melanoma) | GI50 (SN12C renal) | GI50 (UACC-62 melanoma) | GI50 (UACC-257 melanoma) | GI50 (SR leukemia) | GI50 (SK-OV-3 ovarian) | GI50 (NCI-H522 lung) | GI50 (HOP-92 NSCLC) | GI50 (HCC-2998 colon) | GI50 (COLO 205 colon) | GI50 (M14 melanoma)
c1ccc2c(C3NCCc4[nH]cnc43)cccc2c1 (stereo not given) | > 100 µM | > 100 µM | > 100 µM | > 100 µM | > 100 µM | > 100 µM | > 100 µM | > 100 µM | > 100 µM | > 100 µM | – | – | – | – | – | – | – | – | – | –
COc1cccc(C=Nc2cc(C)ccn2)c1O.COc1cccc(C=Nc2cc(C)ccn2)c1O.[Cu] | 50.4 µM | 31.9 µM | 43.1 µM | > 100 µM | 28.1 µM | 52.3 µM | 50.6 µM | 37.9 µM | 42.8 µM | 39.1 µM | 19 µM | 15.8 µM | 19.1 µM | 18.6 µM | 13.6 µM | 22.3 µM | 30.3 µM | 16.2 µM | 18.9 µM | 12.7 µM
COC(=O)C(Cc1ccccc1)NC(=O)NC(=O)NC(=O)CI (stereo not given) | 53.3 µM | 26 µM | 26.5 µM | 3.67 µM | 29.4 µM | 3.38 µM | 5.51 µM | 33.3 µM | 3.56 µM | 7.45 µM | 20.3 µM | 12.3 µM | 13.2 µM | 1.2 µM | 15.8 µM | 1.61 µM | 2.51 µM | 17.2 µM | 1.83 µM | 2.51 µM
CCCn1c(C)nc2c1C(=O)c1ccccc1C2=O | > 100 µM | 67.7 µM | 49 µM | 79.4 µM | > 100 µM | 75.1 µM | > 100 µM | > 100 µM | > 100 µM | > 100 µM | 25.5 µM | 22.1 µM | 16.5 µM | 15.1 µM | 86.2 µM | 18.7 µM | > 100 µM | 50.2 µM | 37.6 µM | 40 µM
COc1ccc(NC(=O)C/C(C)=N\N=C(N)N)c([N+](=O)[O-])c1 | > 100 µM | > 100 µM | > 100 µM | 48.8 µM | > 100 µM | > 100 µM | > 100 µM | > 100 µM | > 100 µM | > 100 µM | – | – | – | – | – | – | – | – | – | –
COC(=O)Cn1c2c(c3c(O)cccc31)C(=O)c1ccccc1-2 | > 100 µM | > 100 µM | > 100 µM | > 100 µM | > 100 µM | > 100 µM | > 100 µM | > 100 µM | > 100 µM | > 100 µM | > 100 µM | > 100 µM | > 100 µM | 28.8 µM | > 100 µM | > 100 µM | 27 µM | > 100 µM | > 100 µM | > 100 µM
O=C(N/N=C/c1ccc2c(c1)CCC2)c1ccccc1O | 62.7 µM | 70.5 µM | 95.1 µM | > 100 µM | 30 µM | 61.1 µM | 65.3 µM | 28.3 µM | > 100 µM | > 100 µM | – | – | – | – | – | – | – | – | – | –
Nc1ncnc2[nH]ncc12 | > 100 µM | 3.48 µM | 14.2 µM | > 100 µM | 4.71 µM | 9.48 µM | 3.61 µM | 4.85 µM | > 67.3 µM | 12.4 µM | 1.3 µM | 0.512 µM | 0.983 µM | 0.445 µM | 0.315 µM | 0.649 µM | 0.431 µM | 0.251 µM | 1.55 µM | 0.442 µM
O=C(/C(=C/c1ccccc1)CN1CCCCC1)c1ccccc1 | 4.76 µM | 4.36 µM | 3.35 µM | 5.78 µM | 7.69 µM | 0.884 µM | 6.74 µM | 3.11 µM | 1.41 µM | 2.88 µM | 1.67 µM | 1.42 µM | 1.25 µM | 0.271 µM | 2.75 µM | 0.365 µM | 2.68 µM | 1.68 µM | 0.447 µM | 1.23 µM
CCCCCCCCCCCC(=O)OCCOCCOCCOCCOCCOCc1ccc(OC)cc1 | > 100 µM | > 100 µM | > 100 µM | > 100 µM | > 100 µM | > 100 µM | > 100 µM | > 100 µM | > 100 µM | > 100 µM | – | – | – | – | – | – | – | – | – | –
O=c1cc(-c2ccccc2)[nH]c2cc(O)ccc12 | 89.6 µM | 46.5 µM | 48.2 µM | 62.9 µM | 90.7 µM | 76.2 µM | 70.3 µM | 74.7 µM | 32.3 µM | 39 µM | – | – | – | – | – | – | – | – | – | –
O=S(=O)(NCCNC/C=C/c1ccc(Br)cc1)c1cccc2cnccc12 | 21 µM and 31.4 µM | 22.2 µM and 30.2 µM | 20.8 µM and 27.5 µM | > 40.9 µM and 34.6 µM | 21.1 µM and 25.1 µM | 26.6 µM and 28.3 µM | 9.81 µM and 11.8 µM | 10 µM and 14 µM | 4.9 µM and 24.6 µM | 26.4 µM and 30.9 µM | 7.25 µM and 14.6 µM | 9.35 µM and 14.5 µM | 7.83 µM and 14.3 µM | 13.6 µM | 7.26 µM and 11.7 µM | 12.6 µM and 13.7 µM | 1.59 µM and 2.8 µM | 3.18 µM and 3.91 µM | 2.23 µM and 10.7 µM | 12.8 µM and 15.3 µM
O=S(=O)(c1ccccc1)C(CN1CCCCC1)S(=O)(=O)c1ccccc1 | > 100 µM | > 100 µM | > 100 µM | > 100 µM | > 100 µM | > 100 µM | > 100 µM | > 100 µM | > 100 µM | > 100 µM | – | – | – | – | – | – | – | – | – | –
CN(C)c1ccc(C=C2C(=O)OC(C)(C)OC2=O)cc1Br | > 100 µM | > 100 µM | > 100 µM | > 100 µM | > 100 µM | > 100 µM | > 100 µM | > 100 µM | > 100 µM | > 100 µM | – | – | – | – | – | – | – | – | – | –
Cc1ccc(C(=O)Nc2ccc(CN3CCN(C)CC3)c(C(F)(F)F)c2)cc1C#Cc1cnc2cccnn12 | 1.26 µM and 3.45 µM | 1.52 µM | 2.04 µM and 4.39 µM | 2.11 µM and 1.98 µM | 1.22 µM and 3.74 µM | 1.28 µM and 3.26 µM | 0.785 µM and 2.03 µM | 1.86 µM and 4.05 µM | 1.24 µM and 3.01 µM | 0.737 µM and 3.42 µM | 0.262 µM and 0.515 µM | 0.306 µM and 1.06 µM | 0.536 µM and 1.56 µM | 0.447 µM and 0.383 µM | 0.342 µM and 1.16 µM | 0.319 µM and 0.538 µM | 0.104 µM and 0.306 µM | 0.579 µM and 1.38 µM | 0.328 µM and 0.879 µM | 0.162 µM and 0.351 µM
CSCC1CC(c2ccc(Cl)cc2)=NO1 (stereo not given) | > 100 µM | > 100 µM | > 100 µM | > 100 µM | > 100 µM | > 100 µM | > 100 µM | > 100 µM | > 100 µM | > 100 µM | – | – | – | – | – | – | – | – | – | –
